Legend:
ALDH1A1 = molecular target: T1, ALDH1A1 (Homo sapiens, UniProt P00352); test: Selectivity biochemical assay, NAD(P)H-Glo Detection System
T1 construct: His-tag; made in house; host or cells: E. coli Rosetta (DE3)
T1 sequence (P00352 1-501): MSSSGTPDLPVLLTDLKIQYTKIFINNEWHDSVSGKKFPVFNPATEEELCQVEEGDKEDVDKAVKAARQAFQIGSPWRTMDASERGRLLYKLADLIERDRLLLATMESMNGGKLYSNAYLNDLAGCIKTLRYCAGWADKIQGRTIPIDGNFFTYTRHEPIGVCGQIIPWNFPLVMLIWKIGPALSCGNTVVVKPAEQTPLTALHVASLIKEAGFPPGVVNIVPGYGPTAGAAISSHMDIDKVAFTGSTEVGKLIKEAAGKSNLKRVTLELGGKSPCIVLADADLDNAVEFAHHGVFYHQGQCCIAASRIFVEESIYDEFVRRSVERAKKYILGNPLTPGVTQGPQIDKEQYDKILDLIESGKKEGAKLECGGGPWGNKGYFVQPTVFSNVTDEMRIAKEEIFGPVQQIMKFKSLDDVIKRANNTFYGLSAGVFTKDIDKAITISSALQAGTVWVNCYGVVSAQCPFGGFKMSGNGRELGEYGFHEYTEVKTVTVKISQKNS
Outline: (§1)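 Recombinant full-length His-tagged human enzymes expressed in E. coli were pre-incubated 30 min at room temperature with compound (10-point, 3-fold series; top 20 μM for ALDH1A3, 250 μM for ALDH1A1/1A2). Propionaldehyde and NAD were then added at Km; NADH was read by NAD(P)H-Glo luminescence. Buffer: Tris (pH 7.6 for 1A1/1A2, 9.0 for 1A3), 1 mM TCEP, 0.01% Tween-20.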

ALDH1A2 = molecular target: T2, ALDH1A2 (Homo sapiens, UniProt O94788); test: as above
T2 construct: His-tag; made in house; host or cells: E. coli Rosetta (DE3)
T2 sequence (O94788 1-518): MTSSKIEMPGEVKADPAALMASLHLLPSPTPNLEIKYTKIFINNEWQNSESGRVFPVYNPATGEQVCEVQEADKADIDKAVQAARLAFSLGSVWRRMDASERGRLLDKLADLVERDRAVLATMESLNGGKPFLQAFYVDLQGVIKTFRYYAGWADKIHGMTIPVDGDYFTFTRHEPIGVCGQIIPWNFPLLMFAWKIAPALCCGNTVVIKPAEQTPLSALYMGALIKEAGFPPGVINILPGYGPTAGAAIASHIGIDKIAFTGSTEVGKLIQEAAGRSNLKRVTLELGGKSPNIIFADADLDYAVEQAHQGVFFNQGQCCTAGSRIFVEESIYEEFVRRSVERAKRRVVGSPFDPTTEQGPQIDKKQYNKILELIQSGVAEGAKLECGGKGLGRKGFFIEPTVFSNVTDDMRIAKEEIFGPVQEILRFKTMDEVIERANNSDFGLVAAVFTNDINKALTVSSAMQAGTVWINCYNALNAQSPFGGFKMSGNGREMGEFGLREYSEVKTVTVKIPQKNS
Outline: as §1

Structure (SMILES)	IC50 (ALDH1A1)	IC50 (ALDH1A2)
CC1(c2ccccc2)COCCN1CCOc1ccc2c(c1)CCC(=O)N2 (stereo not shown) [ALDHI-2040, 6-[2-(3-methyl-3-phenyl-morpholin-4-yl)ethoxy]-3,4-dihydro-1H-quinolin-2-one]	≥ 100 µM	0.1 to 1 µM
O=C1CCc2cc(OCCn3ccnc3-c3ccccc3)ccc2N1 [ALDHI-2041, 6-[2-(2-phenylimidazol-1-yl)ethoxy]-3,4-dihydro-1H-quinolin-2-one]	≥ 100 µM	1 to 10 µM
CC1(C)Oc2cc(OCCN3CCCC3c3cccc(F)c3)ccc2NC1=O (stereo not shown) [ALDHI-2043, 7-[2-[2-(3-fluorophenyl)pyrrolidin-1-yl]ethoxy]-2,2-dimethyl-4H-1,4-benzoxazin-3-one]	≥ 100 µM	1 to 10 µM
CC1Oc2cc(OCCN3CCCC3c3cccc(F)c3)ccc2NC1=O (stereo not shown) [ALDHI-2044, 7-[2-[2-(3-fluorophenyl)pyrrolidin-1-yl]ethoxy]-2-methyl-4H-1,4-benzoxazin-3-one]	≥ 100 µM	10 to 100 µM
CCC1Oc2cc(OCCN3CCCC3c3cccc(F)c3)ccc2NC1=O (stereo not shown) [ALDHI-2045, 2-ethyl-7-[2-[2-(3-fluorophenyl)pyrrolidin-1-yl]ethoxy]-4H-1,4-benzoxazin-3-one]	≥ 100 µM	1 to 10 µM
CC1Cc2cc(OCCN3CCCC3c3cccc(F)c3)ccc2NC1=O (stereo not shown) [ALDHI-2048, 6-[2-[2-(3-fluorophenyl)pyrrolidin-1-yl]ethoxy]-3-methyl-3,4-dihydro-1H-quinolin-2-one]	10 to 100 µM	0.1 to 1 µM
O=C1CCc2cc(OCCN3CCCC3c3cccc(F)c3)c(F)cc2N1 (stereo not shown) [ALDHI-2050, 7-fluoro-6-[2-[2-(3-fluorophenyl)pyrrolidin-1-yl]ethoxy]-3,4-dihydro-1H-quinolin-2-one]	≥ 100 µM	1 to 10 µM
O=C1CCc2cc(OCCN3C(=O)CCC3c3ccccc3)ccc2N1 (stereo not shown) [ALDHI-2051, 6-[2-(2-oxo-5-phenyl-pyrrolidin-1-yl)ethoxy]-3,4-dihydro-1H-quinolin-2-one]	≥ 100 µM	1 to 10 µM
O=C1CCc2cc(OCCN3CC(F)CC3c3cccc(F)c3)ccc2N1 (stereo not shown) [ALDHI-2052, 6-[2-[4-fluoro-2-(3-fluorophenyl)pyrrolidin-1-yl]ethoxy]-3,4-dihydro-1H-quinolin-2-one]	≥ 100 µM	0.1 to 1 µM
O=C1CCc2cc(OCCN3CC(F)(F)CC3c3cccc(F)c3)ccc2N1 (stereo not shown) [ALDHI-2053, 6-[2-[4,4-difluoro-2-(3-fluorophenyl)pyrrolidin-1-yl]ethoxy]-3,4-dihydro-1H-quinolin-2-one]	≥ 100 µM	1 to 10 µM
CN(CCOc1ccc2c(c1)CCC(=O)N2)Cc1cccc(F)c1 [ALDHI-3001, 6-[2-[(3-fluorophenyl)methyl-methyl-amino]ethoxy]-3,4-dihydro-1H-quinolin-2-one]	≥ 100 µM	1 to 10 µM
O=C1CCc2cc(OCCN(CCO)Cc3cccc(F)c3)ccc2N1 [ALDHI-3002, 6-[2-[(3-fluorophenyl)methyl-(2-hydroxyethyl)amino]ethoxy]-3,4-dihydro-1H-quinolin-2-one]	≥ 100 µM	0.1 to 1 µM
CN(CCOc1ccc2c(c1)CCC(=O)N2)C(CO)c1cccc(F)c1 (stereo not shown) [ALDHI-3003, 6-[2-[[1-(3-fluorophenyl)-2-hydroxy-ethyl]-methyl-amino]ethoxy]-3,4-dihydro-1H-quinolin-2-one]	≥ 100 µM	1 to 10 µM
CCN(CC)CCN(CCOc1ccc2c(c1)CCC(=O)N2)Cc1ccccc1 [ALDHI-3004, 6-[2-[benzyl-[2-(diethylamino)ethyl]amino]ethoxy]-3,4-dihydro-1H-quinolin-2-one]	≥ 100 µM	1 to 10 µM
O=C1CCc2cc(OCCN(CCO)Cc3cccnc3)ccc2N1 [ALDHI-3005, 6-[2-[2-hydroxyethyl(3-pyridylmethyl)amino]ethoxy]-3,4-dihydro-1H-quinolin-2-one]	≥ 100 µM	10 to 100 µM
C[C@H](c1ccccc1)N(CCO)CCOc1ccc2c(c1)CCC(=O)N2 [ALDHI-3006, 6-[2-[2-hydroxyethyl-[(1R)-1-phenylethyl]amino]ethoxy]-3,4-dihydro-1H-quinolin-2-one]	10 to 100 µM	1 to 10 µM
C[C@@H](c1ccccc1)N(CCO)CCOc1ccc2c(c1)CCC(=O)N2 [ALDHI-3007, 6-[2-[2-hydroxyethyl-[(1S)-1-phenylethyl]amino]ethoxy]-3,4-dihydro-1H-quinolin-2-one]	10 to 100 µM	1 to 10 µM
CN(CCOc1ccc2c(c1)CCC(=O)N2)C(=O)c1cccc(F)c1 [ALDHI-3008, 3-fluoro-N-methyl-N-[2-[(2-oxo-3,4-dihydro-1H-quinolin-6-yl)oxy]ethyl]benzamide]	≥ 100 µM	1 to 10 µM
CN(CCOc1ccc2c(c1)CCC(=O)N2)Cc1cccnc1 [ALDHI-3010, 6-[2-[methyl(3-pyridylmethyl)amino]ethoxy]-3,4-dihydro-1H-quinolin-2-one]	10 to 100 µM	10 to 100 µM
CN(CCOc1ccc2c(c1)CCC(=O)N2)C(=O)c1cccnc1 [ALDHI-3013, N-methyl-N-[2-[(2-oxo-3,4-dihydro-1H-quinolin-6-yl)oxy]ethyl]pyridine-3-carboxamide]	≥ 100 µM	≥ 100 µM
